# Data: ChEMBL document CHEMBL5325436, “Discovery of ML210-Based glutathione peroxidase 4 (GPX4) degrader inducing ferroptosis of human cancer cells” (Eur J Med Chem, 2023)
# pEC50, pIC50: −log10 of the molar value. Active and inactive are the calls of the source. The calls are words filed in the database; no cut-off is given here.
# Columns and labels:
# [1] = biological target: T1, Protein cereblon/Phospholipid hydroperoxide glutathione peroxidase GPX4 (Homo sapiens) (UniProt Q96SW2+P36969); assay: PROTAC activity at CRBN/GPX4 in human HT-1080 cells assessed as induction of GPX4 degradation at 1 uM incubated for 24 hrs by Western blot analysis relative to control; format: cell-based
# [2] = test system: HT-1080; assay: Antiproliferative activity against human HT-1080 cells assessed as reduction in cell viability incubated for 24 hrs by MTT assay; format: functional, cell-based; settings: HT-1080, 24 h
# [3] = biological target: T1, Protein cereblon/Phospholipid hydroperoxide glutathione peroxidase GPX4 (Homo sapiens); assay: PROTAC activity at CRBN/GPX4 in human HT-1080 cells assessed as induction of GPX4 degradation at 0.1 uM incubated for 24 hrs by Western blot analysis relative to control; format: cell-based
# [4] = biological target: T2, Phospholipid hydroperoxide glutathione peroxidase GPX4 (Homo sapiens) (UniProt P36969); assay: Induction of GPX4 degradation in human HT-1080 cells measured after 12 hrs relative to control; format: cell-based
# T2 sequence (whole entry): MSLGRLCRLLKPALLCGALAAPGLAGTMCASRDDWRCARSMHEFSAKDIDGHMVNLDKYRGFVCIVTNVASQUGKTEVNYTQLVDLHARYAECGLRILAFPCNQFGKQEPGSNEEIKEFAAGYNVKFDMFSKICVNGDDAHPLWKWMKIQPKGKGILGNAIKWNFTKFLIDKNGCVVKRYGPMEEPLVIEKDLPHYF
# [5] = biological target: T2, Phospholipid hydroperoxide glutathione peroxidase GPX4 (Homo sapiens); assay: Induction of GPX4 degradation in human HT-1080 cells assessed as reduction in GPX4 protein level measured after 6 hrs; format: cell-based
# [6] = biological target: T3, Phospholipid hydroperoxide glutathione peroxidase GPX4 (Homo sapiens, UniProt P36969); assay: Induction of GPX4 degradation in human HT-1080 cells measured after 24 hrs; format: cell-based
# T3 sequence (P36969 whole entry): T2 sequence (whole entry)
# [7] = Cytotoxicity against HEK293T cells assessed as reduction in cell viability measured after 24 hrs by MTT assay; format: toxicity, cell-based, HEK-293T; settings: human
# [8] = test system: HT-1080; assay: Induction of ferroptosis in human HT-1080 cells assessed as increase in ROS accumulation at 0.3 uM measured at 6 to 12 hrs by fluorescence intensity based flow cytometric analysis; format: functional, cell-based; settings: time 6-12 hrs
# [9] = test system: A-375; assay: Antiproliferative activity against human A-375 cells assessed as reduction in cell viability incubated for 24 hrs by MTT assay; format: functional, cell-based; settings: A-375, 24 h
# [10] = test system: Calu-1; assay: Antiproliferative activity against human Calu-1 cells assessed as reduction in cell viability incubated for 24 hrs by MTT assay; format: functional, cell-based; settings: Calu-1, 24 h
# [11] = Toxicity in Balb/c nude mouse xenografted with human HT-1080 cells assessed as body weight loss at 3 mg/kg, iv administered once every two days for 10 days; format: organism-based; settings: in vivo, 240 h, time 10 day
# [12] = biological target: T1, Protein cereblon/Phospholipid hydroperoxide glutathione peroxidase GPX4 (Homo sapiens); assay: PROTAC activity at CRBN/GPX4 in human HT-1080 cells assessed as induction of GPX4 degradation at 1 uM by Western blot analysis; format: cell-based; settings: time <= 24.0 hrs, TDE = time-dependent effect
# [13] = biological target: T1, Protein cereblon/Phospholipid hydroperoxide glutathione peroxidase GPX4 (Homo sapiens); assay: (§1) PROTAC activity at CRBN/GPX4 in human HT-1080 cells assessed as induction of GPX4 degradation incubated for 24 hrs by Western blot analysis; format: cell-based
# [14] = biological target: Protein cereblon/Phospholipid hydroperoxide glutathione peroxidase GPX4 (Homo sapiens, UniProt P36969+Q96SW2); assay: as §1; format: cell-based
# [15] = Potency index, ratio of test compound IC50 to ML210 IC50 for cytotoxicity against HEK293T cells; format: toxicity, cell-based, HEK-293T; settings: human, read-out: Ratio IC50
# [16] = biological target: T1, Protein cereblon/Phospholipid hydroperoxide glutathione peroxidase GPX4 (Homo sapiens); assay: Potency index, ratio of […] EC50 to test compound EC50 for PROTAC activity at CRBN/GPX4 in human HT-1080 cells; format: cell-based
# [17] = test system: HT-1080; assay: Induction of ferroptosis in human HT-1080 cells assessed as cell death at 0.3 uM preincubated with liproxstin-1 for 2 hrs followed by compound addition and measured after 12 hrs by fluorescence intensity based flow cytometric analysis; format: functional
# [18] = biological target: T1, Protein cereblon/Phospholipid hydroperoxide glutathione peroxidase GPX4 (Homo sapiens); assay: PROTAC activity at CRBN/GPX4 in human HT-1080 cells assessed as induction of GPX4 degradation at 0.1 uM incubated for 12 hrs by Western blot analysis relative to control; format: cell-based
# [19] = biological target: T1, Protein cereblon/Phospholipid hydroperoxide glutathione peroxidase GPX4 (Homo sapiens); assay: PROTAC activity at CRBN/GPX4 in human HT-1080 cells assessed as induction of GPX4 degradation at 0.3 uM incubated for 24 hrs by Western blot analysis relative to control; format: cell-based
# [20] = test system: HT-1080; assay: Induction of ferroptosis in human HT-1080 cells assessed as increase in ROS accumulation at 0.3 uM measured upto 12 hrs by fluorescence intensity based flow cytometric analysis; format: functional, cell-based
# [21] = biological target: T1, Protein cereblon/Phospholipid hydroperoxide glutathione peroxidase GPX4 (Homo sapiens); assay: PROTAC activity at CRBN/GPX4 in human HT-1080 cells assessed as induction of GPX4 degradation in the presence of lenalidomide by ligand competition assay; format: cell-based
# [22] = Toxicity in Balb/c nude mouse xenografted with human HT-1080 cells assessed as body weight loss at 5 to 40 mg/kg, iv administered once every two days for 10 days; format: organism-based; settings: in vivo, 240 h, dose 5-40 mg/kg, time 10 day
# [23] = test system: Mus musculus; assay: In vivo PROTAC activity at CRBN/GPX4 in human HT-1080 cells xenografted in Balb/c nude mouse assessed as reduction in GPX4 level in tumor at 20 mg/kg,iv administered as single dose by immunoblotting analysis; format: functional, organism-based; settings: time 6-48 hrs, TDE = time-dependent effect
# [24] = biological target: T1, Protein cereblon/Phospholipid hydroperoxide glutathione peroxidase GPX4 (Homo sapiens); assay: PROTAC activity at CRBN/GPX4 in human HT-1080 cells assessed as induction of GPX4 degradation at 0.1 uM preincubated with MG132 and Baf-A1 for 2 hrs followed by compound addition and measured after 12 hrs by Western blot analysis; format: cell-based
# [25] = test system: HT-1080; assay: Antiproliferative activity against human HT-1080 cells assessed as reduction in cell viability at 10 uM incubated for 24 hrs in the presence of liproxstin-1 by MTT assay; format: functional, cell-based
# [26] = biological target: T1, Protein cereblon/Phospholipid hydroperoxide glutathione peroxidase GPX4 (Homo sapiens); assay: PROTAC activity at CRBN/GPX4 in human HT-1080 cells assessed as induction of GPX4 degradation in the presence of ML210 by ligand competition assay; format: cell-based
smiles,measurement,setting,value
Cc1onc(C(=O)N2CCN(C(c3ccc(Cl)cc3)c3ccc(OCC(=O)N4CCN(CCCCCCCCCCCCNc5cccc6c5CN(C5CCC(=O)NC5=O)C6=O)CC4)cc3)CC2)c1[N+](=O)[O-] (centres undefined),Activity,[1],32%
Cc1onc(C(=O)N2CCN(C(c3ccc(Cl)cc3)c3ccc(OCC(=O)N4CCN(CCCCCCCNc5cccc6c5CN(C5CCC(=O)NC5=O)C6=O)CC4)cc3)CC2)c1[N+](=O)[O-] (centres undefined),Activity,[1],13%
Cc1onc(C(=O)N2CCN(C(c3ccc(Cl)cc3)c3ccc(OCC(=O)N4CCC(CN5CCC(CN6CCN(c7cccc8c7C(=O)N(C7CCC(=O)NC7=O)C8=O)CC6)CC5)CC4)cc3)CC2)c1[N+](=O)[O-] (centres undefined),Activity,[1],30%
same,pIC50,[2],6.00
Cc1onc(C(=O)N2CCN(C(c3ccc(Cl)cc3)c3ccc(OCC(=O)N4CCN(CCCCCCCCNc5cccc6c5CN(C5CCC(=O)NC5=O)C6=O)CC4)cc3)CC2)c1[N+](=O)[O-] (centres undefined),Activity,[1],36%
Cc1onc(C(=O)N2CCN(C(c3ccc(Cl)cc3)c3ccc(OCC(=O)N4CCN(CCCCCCCCCCCCCCNc5cccc6c5CN(C5CCC(=O)NC5=O)C6=O)CC4)cc3)CC2)c1[N+](=O)[O-] (centres undefined),Activity,[1],< 5%
Cc1onc(C(=O)N2CCN(C(c3ccc(Cl)cc3)c3ccc(OCC(=O)N4CCC(CN5CCN(CCCCCNc6cccc7c6C(=O)N(C6CCC(=O)NC6=O)C7=O)CC5)CC4)cc3)CC2)c1[N+](=O)[O-] (centres undefined),Activity,[1],> 80%
same,Activity,[3],33%
Cc1onc(C(=O)N2CCN(C(c3ccc(Cl)cc3)c3ccc(Cl)cc3)CC2)c1[N+](=O)[O-],Activity,[4],> 60%
same,Activity,[5],Active
same,pEC50,[6],6.19
same,IC50 at 24 h,[7],200 nM
same,pIC50,[2],7.00
same,Activity,[8],inactive
same,pIC50,[9],6.52
same,pIC50,[10],6.05
same,Activity,[11],Toxic
Cc1onc(C(=O)N2CCN(C(c3ccc(Cl)cc3)c3ccc(OCC(=O)N4CCC(CN5CCN(CCCCNc6cccc7c6C(=O)N(C6CCC(=O)NC6=O)C7=O)CC5)CC4)cc3)CC2)c1[N+](=O)[O-] (centres undefined),Activity,[1],70%
same,Activity,[3],42%
Cc1onc(C(=O)N2CCN(C(c3ccc(Cl)cc3)c3ccc(OCC(=O)N4CCC(CN5CCN(CCNc6cccc7c6C(=O)N(C6CCC(=O)NC6=O)C7=O)CC5)CC4)cc3)CC2)c1[N+](=O)[O-] (centres undefined),Activity,[1],> 80%
same,Activity,[3],36%
Cc1onc(C(=O)N2CCN(C(c3ccc(Cl)cc3)c3ccc(OCC(=O)N4CCN(CCCCCCCCCCCNc5cccc6c5CN(C5CCC(=O)NC5=O)C6=O)CC4)cc3)CC2)c1[N+](=O)[O-] (centres undefined),Activity,[1],54%
Cc1onc(C(=O)N2CCN(C(c3ccc(Cl)cc3)c3ccc(OCC(=O)N4CCN(CCCCCCCCCNc5cccc6c5CN(C5CCC(=O)NC5=O)C6=O)CC4)cc3)CC2)c1[N+](=O)[O-] (centres undefined),Activity,[1],40%
same,Activity,[12],Tde
same,pIC50,[2],6.52
same,Activity,[13],Dose-Dependent Effect
same,pEC50,[14],6.40
Cc1onc(C(=O)N2CCN(C(c3ccc(Cl)cc3)c3ccc(OCC(=O)N4CCN(CCCCCCCCCCNc5cccc6c5CN(C5CCC(=O)NC5=O)C6=O)CC4)cc3)CC2)c1[N+](=O)[O-] (centres undefined),Activity,[1],43%
Cc1onc(C(=O)N2CCN(C(c3ccc(Cl)cc3)c3ccc(OCC(=O)N4CCN(CCCCCCCCCCCCCNc5cccc6c5CN(C5CCC(=O)NC5=O)C6=O)CC4)cc3)CC2)c1[N+](=O)[O-] (centres undefined),Activity,[1],36%
Cc1onc(C(=O)N2CCN(C(c3ccc(Cl)cc3)c3ccc(OCC(=O)N4CCC(CN5CCN(CCCCCCNc6cccc7c6C(=O)N(C6CCC(=O)NC6=O)C7=O)CC5)CC4)cc3)CC2)c1[N+](=O)[O-] (centres undefined),Activity,[1],> 80%
same,Activity,[3],50%
Cc1onc(C(=O)N2CCN(C(c3ccc(Cl)cc3)c3ccc(OCC(=O)N4CCC(CN5CCN(CCCNc6cccc7c6C(=O)N(C6CCC(=O)NC6=O)C7=O)CC5)CC4)cc3)CC2)c1[N+](=O)[O-] (centres undefined),selectivity ratio,[15],5
same,Ratio EC50,[16],22
same,Activity,[1],> 78%
same,Activity,[17],inactive
same,Activity,[18],> 80%
same,Activity,[19],100%
same,Activity,[12],Tde
same,Activity,[20],Active
same,IC50 at 24 h,[7],1100 nM
same,pIC50,[2],7.00
same,Activity,[13],Dose-Dependent Effect
same,pEC50,[14],7.52
same,Activity,[21],Active
same,pIC50,[9],6.70
same,Activity,[22],Non-Toxic
same,Activity,[23],Tde
same,pIC50,[10],6.52
same,Activity,[24],inactive
same,Activity,[25],inactive
same,Activity,[26],Active
same,Activity,[3],82%
Cc1onc(C(=O)N2CCN(C(c3ccc(Cl)cc3)c3ccc(OCC(=O)N4CCC(CN5CCC(CN6CCC(Nc7cccc8c7C(=O)N(C7CCC(=O)NC7=O)C8=O)CC6)CC5)CC4)cc3)CC2)c1[N+](=O)[O-] (centres undefined),Activity,[1],25%
same,pIC50,[2],5.92
